ChEMBL document CHEMBL1138956, “Synthesis and in vitro anti-tumor activity of N-{1-[(3-thioxo-5,6-dihydroimidazo[2,1-c][1,2,4]thiadiazol-7-ylthio)thiocarbonyl]-2-imidazolidene}arylsulfonamides” (2006)
The source made the active and inactive calls. The rule behind the calls is not given here.

Tests used:
[1] = test system: KYSE-510; assay: Antitumor activity against KYSE510 cell line after 96 hrs using crystal violet; assay type: functional; conditions: Homo sapiens, KYSE-510, 96 h
[2] = test system: RXF 393; assay: Antitumor activity against RXF393 cell line; assay type: functional, cell-based; conditions: Homo sapiens
[3] = test system: CCRF-CEM; assay: Antitumor activity against CCRF-CEM cell line; assay type: functional, cell-based; conditions: Homo sapiens
[4] = test system: HL-60; assay: Antitumor activity against HL60(TB) cell line; assay type: functional, cell-based; conditions: Homo sapiens
[5] = test system: SR; assay: Antitumor activity against SR cell line; assay type: functional, cell-based; conditions: Homo sapiens
[6] = test system: SF-539; assay: Antitumor activity against SF539 cell line; assay type: functional, cell-based; conditions: Homo sapiens
[7] = test system: UO-31; assay: Antitumor activity against UO31 cell line; assay type: functional, cell-based; conditions: Homo sapiens
[8] = test system: RPMI-8226; assay: Antitumor activity against RPMI8226 cell line; assay type: functional, cell-based; conditions: Homo sapiens
[9] = test system: HOP-92; assay: Antitumor activity against HOP92 cell line; assay type: functional, cell-based; conditions: Homo sapiens
[10] = test system: LOX IMVI; assay: Antitumor activity against LOXIMVI cell line; assay type: functional, cell-based; conditions: Homo sapiens
[11] = test system: SK-OV-3; assay: Antitumor activity against SKOV3 cell line; assay type: functional, cell-based; conditions: Homo sapiens
[12] = test system: ACHN; assay: Antitumor activity against ACHN cell line; assay type: functional, cell-based; conditions: Homo sapiens
[13] = test system: 5637; assay: Antitumor activity against 5637 cell line after 96 hrs using crystal violet; assay type: functional; conditions: Homo sapiens, 5637, 96 h

Compound | GI50 [1] | other results
COc1cc(C)ccc1S(=O)(=O)NC1=NCCN1C(=S)SN1CCn2c1nsc2=S | ≥ 20 µM | –
O=S(=O)(NC1=NCCN1C(=S)SN1CCn2c1nsc2=S)c1ccc(F)c(Cl)c1 | ≥ 20 µM | –
O=S(=O)(NC1=NCCN1C(=S)SN1CCn2c1nsc2=S)c1cc(Cl)cc(Cl)c1 | ≥ 20 µM | –
COc1ccc(S(=O)(=O)NC2=NCCN2C(=S)SN2CCn3c2nsc3=S)cc1OC | ≥ 20 µM | Activity [2]: Active
O=S(=O)(NC1=NCCN1C(=S)SN1CCn2c1nsc2=S)c1ccccc1Cl | ≥ 20 µM | Activity [3]: Active; Activity [4]: Active
O=S(=O)(NC1=NCCN1C(=S)SN1CCn2c1nsc2=S)c1ccc(OC(F)(F)F)cc1 | ≥ 20 µM | Activity [5]: Active; Activity [6]: Active
COc1ccc(S(=O)(=O)NC2=NCCN2C(=S)SN2CCn3c2nsc3=S)cc1 | ≥ 20 µM | Activity [7]: Active; Activity [2]: Active
O=S(=O)(NC1=NCCN1C(=S)SN1CCn2c1nsc2=S)c1ccc(-c2ccccc2)cc1 | ≥ 20 µM | –
COc1ccc(OC)c(S(=O)(=O)NC2=NCCN2C(=S)SN2CCn3c2nsc3=S)c1 | ≥ 20 µM | –
O=S(=O)(NC1=NCCN1C(=S)SN1CCn2c1nsc2=S)c1ccc(Cl)c(Cl)c1Cl | ≥ 20 µM | –
O=S(=O)(NC1=NCCN1C(=S)SN1CCn2c1nsc2=S)c1ccc(Br)cc1 | ≥ 20 µM | Activity [8]: Active; Activity [9]: Active
O=S(=O)(NC1=NCCN1C(=S)SN1CCn2c1nsc2=S)c1ccc2ccccc2c1 | ≥ 20 µM | –
O=S(=O)(NC1=NCCN1C(=S)SN1CCn2c1nsc2=S)c1ccc(Cl)cc1 | ≥ 20 µM | Activity [7]: Active; Activity [6]: Active
O=S(=O)(NC1=NCCN1C(=S)SN1CCn2c1nsc2=S)c1cccc(Cl)c1 | ≥ 20 µM | Activity [3]: Active; Activity [2]: Active
O=S(=O)(NC1=NCCN1C(=S)SN1CCn2c1nsc2=S)c1ccc(C(F)(F)F)cc1 | ≥ 20 µM | –
Cc1ccc(S(=O)(=O)NC2=NCCN2C(=S)SN2CCn3c2nsc3=S)cc1 | ≥ 20 µM | Activity [10]: Active; Activity [11]: Active
O=S(=O)(NC1=NCCN1C(=S)SN1CCn2c1nsc2=S)c1cccc2ccccc12 | ≥ 20 µM | Activity [3]: Active; Activity [8]: Active
O=S(=O)(NC1=NCCN1C(=S)SN1CCn2c1nsc2=S)c1ccc(Oc2ccccc2)cc1 | ≥ 20 µM | Activity [5]: Active; Activity [4]: Active
O=S(=O)(NC1=NCCN1C(=S)SN1CCn2c1nsc2=S)c1cccc(OC(F)(F)F)c1 | ≥ 20 µM | Activity [3]: Active; Activity [8]: Active
CC(=O)Nc1ccc(S(=O)(=O)NC2=NCCN2C(=S)SN2CCn3c2nsc3=S)cc1 | ≥ 20 µM | –
COc1cccc(S(=O)(=O)NC2=NCCN2C(=S)SN2CCn3c2nsc3=S)c1 | ≥ 20 µM | Activity [10]: Active; Activity [12]: Active
O=S(=O)(NC1=NCCN1C(=S)SN1CCn2c1nsc2=S)c1ccc(Cl)cc1Cl | ≥ 20 µM | –
Cc1cc(C)c(S(=O)(=O)NC2=NCCN2C(=S)SN2CCn3c2nsc3=S)c(C)c1 | ≥ 20 µM | –
O=S(=O)(NC1=NCCN1C(=S)SN1CCn2c1nsc2=S)c1ccc(Cl)c(Cl)c1 | ≥ 20 µM | –
O=[N+]([O-])c1ccc(S(=O)(=O)NC2=NCCN2C(=S)SN2CCn3c2nsc3=S)cc1 | ≥ 20 µM | GI50 [13]: 3.67 µM
O=S(=O)(NC1=NCCN1C(=S)SN1CCn2c1nsc2=S)c1ccccc1 | ≥ 20 µM | –
